Experimental data reported in US20240165244A1 (Prelude Therapeutics Incorporated, priority 2022, published 2024).

Tests used:
[1] = target: T1, SMARCA4 (Homo sapiens, UniProt P51532); assay: SMARCA4 HiBiT degradation assay in HeLa cells; format: cell-based; settings: 18 hours, highest concentration 10 μM
T1 construct: SMARCA4-HiBiT knock-in Hela monoclonal cell (CS3023226); host or cells: HeLa monoclonal cells with heterozygous HiBiT knock-in at the endogenous SMARCA4 locus
Experimental: (§1) SMARCA2 HiBiT and SMARCA4 HiBiT Degradation Assay
HiBiT peptide knock-in of SMARCA2 in LgBiT expressing HEK293T cells was performed by CRISPR-mediated tagging system as described Promega. […] SMARCA2-HiBiT knock-in Hela monoclonal cell (CS302366) and SMARCA4-HiBiT knock-in Hela monoclonal cell (CS3023226) were purchased from Promega.
(§2) SMARCA2 HiBiT and SMARCA4 HiBiT Degradation Assay in HeLa Cells
Remove appropriate volume of resuspended cells from culture flask to accommodate 2500 cells/well @ 20 μL/well. […] Spin down at 1000 rpm for 5 min using tabletop centrifuge (SPINCHRON 15, Beckman).
Dispense test compounds onto plates using digital liquid dispenser (D300E, Tecan). Incubate plates in humidified tissue culture incubator @37° C. for 18 hours. […] Raw data files and compound information reports are swept into centralized data lake and deconvoluted using automated scripts designed by TetraScience, Inc. Data analysis, curve-fitting and reporting done in Dotmatics Informatics Suite using Screening Ultra module.

[2] = target: T2, SMARCA2 (Homo sapiens, UniProt P51531); assay: SMARCA2 HiBiT degradation assay in HeLa cells; format: cell-based; settings: 18 hours, highest concentration 10 μM
T2 construct: SMARCA2-HiBiT knock-in Hela monoclonal cell (CS302366); host or cells: HeLa monoclonal cells with heterozygous HiBiT knock-in at the endogenous SMARCA2 locus
T2 sequence (P51531 whole entry): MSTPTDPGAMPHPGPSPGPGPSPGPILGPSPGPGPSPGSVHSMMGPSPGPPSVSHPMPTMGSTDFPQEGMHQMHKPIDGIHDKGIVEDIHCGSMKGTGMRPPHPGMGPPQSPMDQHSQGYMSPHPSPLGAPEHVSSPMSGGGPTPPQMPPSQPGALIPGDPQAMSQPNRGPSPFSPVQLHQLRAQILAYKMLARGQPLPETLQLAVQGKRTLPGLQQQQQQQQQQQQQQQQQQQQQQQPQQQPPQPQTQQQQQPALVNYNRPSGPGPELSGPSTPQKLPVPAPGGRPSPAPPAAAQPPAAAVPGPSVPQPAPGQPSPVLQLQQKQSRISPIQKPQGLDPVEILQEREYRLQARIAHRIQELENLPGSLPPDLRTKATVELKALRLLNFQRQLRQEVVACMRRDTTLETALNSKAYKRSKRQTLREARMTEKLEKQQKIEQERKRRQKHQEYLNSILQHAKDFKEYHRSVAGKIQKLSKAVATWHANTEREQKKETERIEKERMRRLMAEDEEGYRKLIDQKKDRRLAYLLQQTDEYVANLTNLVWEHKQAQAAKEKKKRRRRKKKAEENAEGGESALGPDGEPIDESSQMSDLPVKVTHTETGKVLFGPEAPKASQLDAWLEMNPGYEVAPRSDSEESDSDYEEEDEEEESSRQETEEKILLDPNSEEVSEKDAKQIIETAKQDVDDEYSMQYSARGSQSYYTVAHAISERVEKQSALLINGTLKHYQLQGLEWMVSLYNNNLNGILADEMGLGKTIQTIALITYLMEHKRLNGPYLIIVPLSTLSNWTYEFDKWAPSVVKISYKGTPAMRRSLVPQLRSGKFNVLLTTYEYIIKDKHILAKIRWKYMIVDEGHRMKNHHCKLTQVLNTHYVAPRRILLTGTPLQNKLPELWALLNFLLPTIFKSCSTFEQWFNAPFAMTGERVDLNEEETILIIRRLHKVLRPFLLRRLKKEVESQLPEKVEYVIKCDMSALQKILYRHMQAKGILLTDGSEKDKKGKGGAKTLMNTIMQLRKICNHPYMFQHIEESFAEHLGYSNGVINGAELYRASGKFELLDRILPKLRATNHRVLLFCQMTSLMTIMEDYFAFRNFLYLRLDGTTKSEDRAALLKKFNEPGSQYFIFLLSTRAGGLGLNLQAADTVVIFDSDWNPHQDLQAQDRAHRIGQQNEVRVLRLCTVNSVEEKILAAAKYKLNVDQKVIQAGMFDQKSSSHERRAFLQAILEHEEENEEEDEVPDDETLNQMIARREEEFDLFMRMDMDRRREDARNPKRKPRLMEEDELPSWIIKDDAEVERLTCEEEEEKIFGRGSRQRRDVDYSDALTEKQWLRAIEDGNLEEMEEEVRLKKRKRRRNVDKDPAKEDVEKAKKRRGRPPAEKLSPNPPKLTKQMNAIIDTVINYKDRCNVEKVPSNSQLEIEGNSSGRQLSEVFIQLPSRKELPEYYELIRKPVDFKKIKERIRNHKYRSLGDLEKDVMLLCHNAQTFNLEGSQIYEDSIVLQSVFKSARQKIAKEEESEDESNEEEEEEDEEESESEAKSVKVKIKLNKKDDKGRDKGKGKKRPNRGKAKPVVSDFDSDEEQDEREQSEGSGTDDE
Experimental: as §1
HiBiT peptide knock-in of SMARCA2 in LgBiT expressing HEK293T cells was performed by CRISPR-mediated tagging system as described Promega. The homozygous HiBiT knock-in on c-terminus SMARCA2 was confirmed by sanger sequence. SMARCA2-HiBiT knock-in Hela monoclonal cell (CS302366) and SMARCA4-HiBiT knock-in Hela monoclonal cell (CS3023226) were purchased from Promega. The heterozygous HiBiT-knock-in was confirmed by sanger sequence in both SMARCA2-HiBiT and SMARCA4-HiBiT monoclonal cells.
as §2
Dispense 10 ul aliquot of prepared Hela-SMARCA2-HiBiT or Hela-SMARCA4-HiBiT cells (1:1 ratio of cells:Trypan Blue (#1450013, Bio-Rad)) onto cell counting slide (#145-0011, Bio-Rad) and obtain cell density and cell viability using cell counter (TC20, Bio-Rad). Remove appropriate volume of resuspended cells from culture flask to accommodate 2500 cells/well @ 20 μL/well. Transfer Hela-HiBiT cells to 50 mL conical (#430290, Corning). Spin down at 1000 rpm for 5 min using tabletop centrifuge (SPINCHRON 15, Beckman). Discard supernatant and resuspend cell pellet in modified EMEM (#30-2003, ATCC) cell culture media containing 10% FBS (F2422-500ML, Sigma), and 1× Penicillin/Streptomycin ([…]) (30-002-CI, Corning) to a cell density of 125,000 cells/mL. Dispense 20 μLof resuspended Hela-HiBit cells per well in 384-well TC treated plate (#12-565-343, Thermo Scientific) using standard cassette (#50950372, Thermo Scientific) on Multidrop Combi (#5840310, Thermo Scientific) inside laminar flow cabinet.
Compounds were dissolved in DMSO to make 10 mM stock and 3-fold series dilutions were further conducted keeping the highest concentration 10 μM. Dispense test compounds onto plates using digital liquid dispenser (D300E, Tecan). Incubate plates in humidified tissue culture incubator @37° C. for 18 hours. Add 20 μL of prepared Nano-Glo® HiBiT Lytic detection buffer (N3050, Promega) to each well of 384-well plate using small tube cassette (#24073295, Thermo Scientific) on Multidrop Combi, incubate @ RT for 30-60 min. Read plates on microplate reader (Envision 2105, PerkinElmer) using 384 well Ultra-Sensitive luminescence mode. Raw data files and compound information reports are swept into centralized data lake and deconvoluted using automated scripts designed by TetraScience, Inc. Data analysis, curve-fitting and reporting done in Dotmatics Informatics Suite using Screening Ultra module.

T1 sequence (P51532 whole entry): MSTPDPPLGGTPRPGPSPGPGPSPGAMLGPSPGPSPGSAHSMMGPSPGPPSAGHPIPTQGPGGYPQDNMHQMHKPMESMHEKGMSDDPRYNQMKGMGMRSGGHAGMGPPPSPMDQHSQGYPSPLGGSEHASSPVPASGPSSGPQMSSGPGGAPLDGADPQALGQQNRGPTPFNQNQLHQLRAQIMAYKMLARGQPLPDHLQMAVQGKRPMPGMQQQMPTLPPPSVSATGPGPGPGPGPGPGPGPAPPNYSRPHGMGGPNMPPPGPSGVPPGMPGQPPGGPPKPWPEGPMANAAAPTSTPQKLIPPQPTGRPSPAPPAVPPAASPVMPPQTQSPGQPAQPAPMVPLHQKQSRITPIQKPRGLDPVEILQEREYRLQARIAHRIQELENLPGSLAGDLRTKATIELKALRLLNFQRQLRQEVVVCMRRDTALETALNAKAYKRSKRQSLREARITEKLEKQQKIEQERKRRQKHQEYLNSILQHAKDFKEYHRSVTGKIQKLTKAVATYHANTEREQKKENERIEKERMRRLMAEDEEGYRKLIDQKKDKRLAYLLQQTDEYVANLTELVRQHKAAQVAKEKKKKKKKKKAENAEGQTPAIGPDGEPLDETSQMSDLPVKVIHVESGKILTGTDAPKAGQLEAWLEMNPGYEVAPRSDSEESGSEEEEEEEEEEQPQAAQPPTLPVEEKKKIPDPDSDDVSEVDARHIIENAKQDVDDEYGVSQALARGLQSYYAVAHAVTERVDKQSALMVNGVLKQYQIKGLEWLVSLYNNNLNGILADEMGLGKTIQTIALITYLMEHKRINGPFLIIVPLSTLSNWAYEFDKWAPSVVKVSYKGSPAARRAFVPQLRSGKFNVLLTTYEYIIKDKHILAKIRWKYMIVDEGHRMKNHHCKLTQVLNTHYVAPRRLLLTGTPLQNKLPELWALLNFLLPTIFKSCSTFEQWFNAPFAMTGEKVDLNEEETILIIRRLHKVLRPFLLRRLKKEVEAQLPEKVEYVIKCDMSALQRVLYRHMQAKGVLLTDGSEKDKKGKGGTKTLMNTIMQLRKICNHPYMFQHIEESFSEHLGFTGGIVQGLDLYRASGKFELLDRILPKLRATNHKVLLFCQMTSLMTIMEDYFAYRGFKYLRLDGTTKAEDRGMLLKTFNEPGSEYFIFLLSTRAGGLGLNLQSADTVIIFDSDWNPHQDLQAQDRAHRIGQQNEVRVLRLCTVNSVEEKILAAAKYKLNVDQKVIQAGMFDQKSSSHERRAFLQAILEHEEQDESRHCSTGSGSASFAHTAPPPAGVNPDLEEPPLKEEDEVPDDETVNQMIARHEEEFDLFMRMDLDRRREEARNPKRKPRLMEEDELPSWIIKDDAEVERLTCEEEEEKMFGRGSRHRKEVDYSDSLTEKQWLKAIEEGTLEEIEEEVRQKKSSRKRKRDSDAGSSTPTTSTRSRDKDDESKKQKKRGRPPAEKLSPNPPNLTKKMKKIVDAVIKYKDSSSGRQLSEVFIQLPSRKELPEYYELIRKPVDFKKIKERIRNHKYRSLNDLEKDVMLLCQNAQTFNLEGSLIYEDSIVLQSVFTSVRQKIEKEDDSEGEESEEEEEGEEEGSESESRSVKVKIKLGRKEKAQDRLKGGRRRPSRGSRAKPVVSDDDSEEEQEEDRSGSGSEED

Row | Compound | DC50 [1] [nM] | Dmax [1] [%] | DC50 [2] [nM] | Dmax [2] [%]
1 | Cc1cc(O[C@@H]2C[C@H]3CNc4nnc(-c5cccc(F)c5O)cc4N3C2)ccc1CN1CCN(c2ccc3c(c2)C(=O)N(C2CCC(=O)NC2=O)C3)CC1 (stereo partly drawn) [Example 36, 3-(6-(4-(4-(((6aS,8R)-2-(3-fluoro-2-hydroxyphenyl)-5,6,6a,7,8,9-hexahydro-pyrrolo[1′,2′:4,5]pyrazino[2,3-c]pyridazin-8-yl)oxy)-2-methylbenzyl)piperazin-1-yl)-1-oxoisoindolin-2-yl)piperidine-2,6-dione] | < 100 | > 75 | < 100 | > 75
2 | CC[C@@]12CNc3nnc(-c4cccc(F)c4O)cc3N1C[C@H](Oc1cc(C)c(CN3CCN(c4ccc5c(c4)C(=O)N(C4CCC(=O)NC4=O)C5)CC3)c(C)n1)C2 (stereo partly drawn) [Example 62, 3-(6-(4-((6-(((6aR,8R)-6a-ethyl-2-(3-fluoro-2-hydroxyphenyl)-5,6,6a,7,8,9-hexahydropyrrolo[1′,2′:4,5]pyrazino[2,3-c]pyridazin-8-yl)oxy)-2,4-dimethylpyridin-3-yl)methyl)piperazin-1-yl)-1-oxoisoindolin-2-yl)piperidine-2,6-dione] | 100 to 1000 | < 50 | < 100 | > 75
3 | CC[C@@]12CNc3nnc(-c4cccc(F)c4O)cc3N1C[C@H](Oc1ncc(CN3CCN(c4ccc5c(c4)C(=O)N(C4CCC(=O)NC4=O)C5)CC3)c(C)c1F)C2 (stereo partly drawn) [Example 61, 3-(6-(4-((6-(((6aR,8R)-6a-ethyl-2-(3-fluoro-2-hydroxyphenyl)-5,6,6a,7,8,9-hexahydropyrrolo[1′,2′:4,5]pyrazino[2,3-c]pyridazin-8-yl)oxy)-5-fluoro-4-methylpyridin-3-yl)methyl)piperazin-1-yl)-1-oxoisoindolin-2-yl)piperidine-2,6-dione] | < 100 | 50 to 75 | < 100 | > 75
4 | CC(C)c1cc(CN2CCN(c3ccc4c(c3)C(=O)N(C3CCC(=O)NC3=O)C4)CC2)ccc1O[C@@H]1C[C@@H]2CNc3nnc(-c4cc(F)cc(F)c4O)cc3N2C1 (stereo partly drawn) [Example 14, 3-(6-(4-(4-(((6aR,8R)-2-(3,5-difluoro-2-hydroxyphenyl)-5,6,6a,7,8,9-hexahydropyrrolo[1′,2′:4,5]pyrazino[2,3-c]pyridazin-8-yl)oxy)-3-isopropylbenzyl)piperazin-1-yl)-1-oxoisoindolin-2-yl)piperidine-2,6-dione] | < 100 | > 75 | < 100 | > 75
5 | C[C@]12CNc3nnc(-c4cccc(F)c4O)cc3N1C[C@H](Oc1cnc(CN3CCN(c4ccc5c(c4)C(=O)N([C@H]4CCC(=O)NC4=O)C5)CC3)cn1)C2 [Example 79, (S)-3-(6-(4-((5-(((6aS,8R)-2-(3-fluoro-2-hydroxyphenyl)-6a-methyl-5,6,6a,7,8,9-hexahydropyrrolo[1′,2′:4,5]pyrazino[2,3-c]pyridazin-8-yl)oxy)pyrazin-2-yl)methyl)piperazin-1-yl)-1-oxoisoindolin-2-yl)piperidine-2,6-dione] | < 100 | 50 to 75 | < 100 | > 75
6 | Cc1cc(O[C@H]2CN3c4cc(-c5cccc(F)c5O)nnc4NC[C@@]3(CF)C2)ncc1CN1CCN(c2ccc3c(c2)C(=O)N([C@H]2CCC(=O)NC2=O)C3)CC1 [Example 58, (S)-3-(6-(4-((6-(((6aR,8R)-2-(3-Fluoro-2-hydroxyphenyl)-6a-(fluoromethyl)-5,6,6a,7,8,9-hexahydropyrrolo[1′,2′:4,5]pyrazino[2,3-c]pyridazin-8-yl)oxy)-4-methylpyridin-3-yl)methyl)piperazin-1-yl)-1-oxoisoindolin-2-yl)piperidine-2,6-dione] | > 1000 | < 50 | < 100 | > 75
7 | O=C1CCC(N2Cc3ccc(N4CCN(Cc5cnc(O[C@H]6CN7c8cc(-c9cccc(F)c9O)nnc8NC[C@]7(C(F)F)C6)cn5)CC4)cc3C2=O)C(=O)N1 (stereo partly drawn) [Example 52, 3-(6-(4-((5-(((6aS,8R)-6a-(difluoromethyl)-2-(3-fluoro-2-hydroxyphenyl)-5,6,6a,7,8,9-hexahydropyrrolo[1′,2′:4,5]pyrazino[2,3-c]pyridazin-8-yl)oxy)pyrazin-2-yl)methyl)piperazin-1-yl)1-oxoisoindolin-2-yl)piperidine-2,6-dione] | > 1000 | < 50 | < 100 | > 75

The remaining lines, values ahead:

Row | DC50 [1] [nM] | Dmax [1] [%] | DC50 [2] [nM] | Dmax [2] [%] | Compound
8 | < 100 | > 75 | < 100 | > 75 | Cc1cc(O[C@@H]2C[C@H]3CNc4nnc(-c5cccc(F)c5O)cc4N3C2)ccc1CN1CCC(c2ccc3c(c2)C(=O)N(C2CCC(=O)NC2=O)C3)CC1 (stereo partly drawn) [Example 37, 3-(6-(1-(4-(((6aS,8R)-2-(3-fluoro-2-hydroxyphenyl)-5,6,6a,7,8,9-hexahydropyrrolo[1′,2′:4,5]pyrazino[2,3-c]pyridazin-8-yl)oxy)-2-methylbenzyl)piperidin-4-yl)-1-oxoisoindolin-2-yl)piperidine-2,6-dione]
9 | < 100 | > 75 | < 100 | > 75 | COc1cc(CN2CCN(c3ccc4c(c3)C(=O)N(C3CCC(=O)NC3=O)C4)CC2)cnc1O[C@H]1CN2c3cc(-c4cccc(F)c4O)nnc3NC[C@]2(C(F)F)C1 (stereo partly drawn) [Example 53, 3-(6-(4-((6-(((6aS,8R)-6a-(difluoromethyl)-2-(3-fluoro-2-hydroxyphenyl)-5,6,6a,7,8,9-hexahydropyrrolo[1′,2′:4,5]pyrazino[2,3-c]pyridazin-8-yl)oxy)-5-methoxypyridin-3-yl)methyl)piperazin-1-yl)-1-oxoisoindolin-2-yl)piperidine-2,6-dione]
10 | > 1000 | < 50 | < 100 | > 75 | CCc1nc(CN2CCC(c3ccc4c(c3)C(=O)N([C@H]3CCC(=O)NC3=O)C4)CC2)cnc1O[C@H]1CN2c3cc(-c4cccc(F)c4O)nnc3NC[C@@]2(CF)C1 [Example 68, (S)-3-(6-(1-((6-ethyl-5-(((6aR,8R)-2-(3-fluoro-2-hydroxyphenyl)-6a-(fluoromethyl)-5,6,6a,7,8,9-hexahydropyrrolo[1′,2′:4,5]pyrazino[2,3-c]pyridazin-8-yl)oxy)pyrazin-2-yl)methyl)piperidin-4-yl)-1-oxoisoindolin-2-yl)piperidine-2,6-dione]
11 | 100 to 1000 | < 50 | < 100 | > 75 | Cc1c(CN2CCN(c3ccc4c(c3)C(=O)N([C@H]3CCC(=O)NC3=O)C4)CC2)cnc(O[C@H]2CN3c4cc(-c5cccc(F)c5O)nnc4NC[C@@]3(C(F)F)C2)c1C [Example 86, (S)-3-(6-(4-((6-(((6aR,8R)-6a-(difluoromethyl)-2-(3-fluoro-2-hydroxyphenyl)-5,6,6a,7,8,9-hexahydropyrrolo[1′,2′:4,5]pyrazino[2,3-c]pyridazin-8-yl)oxy)-4,5-dimethylpyridin-3-yl)methyl)piperazin-1-yl)-1-oxoisoindolin-2-yl)piperidine-2,6-dione]
12 | < 100 | > 75 | < 100 | > 75 | O=C1CCC(N2Cc3ccc(N4CCN(Cc5cnc(S[C@@H]6C[C@@H]7CNc8nnc(-c9cc(F)cc(F)c9O)cc8N7C6)nc5)CC4)cc3C2=O)C(=O)N1 (stereo partly drawn) [Example 26, 3-(6-(4-((2-(((6aR,8R)-2-(3,5-difluoro-2-hydroxyphenyl)-5,6,6a,7,8,9-hexa-hydropyrrolo[1′,2′:4,5]pyrazino[2,3-c]pyridazin-8-yl)thio)pyrimidin-5-yl)methyl)piperazin-1-yl)-1-oxoisoindolin-2-yl)piperidine-2,6-dione]
